Assay results as given in PMC9709778 (RSC Chemical Biology, 2022).

Target: amyloid β (Aβ42) (Homo sapiens, UniProt P05067)
Experiment: 1H-15N SOFAST-HMQC NMR chemical shift perturbation
Format: biochemical

Chain of amyloid β (Aβ42) (P05067 672-713): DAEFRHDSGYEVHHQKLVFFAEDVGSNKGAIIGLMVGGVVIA

IC50: 10.6 ± 1.3 µM
Structure (SMILES): COc1cc(OC)c(C(=O)/C=C/c2ccccc2)c(O)c1O [DDC, 2′,3′-dihydroxy-4′,6′-dimethoxychalcone]
